In PubChem BioAssay AID248 (DTP/NCI, 2004):
“And” between values parts separate entries of the source, which are not always exact repeats. Equal entries are not always repeated. Toxic doses and inconclusive results are not listed. Cut-off read from the data, not from the text of the source: active = T/C of 150% or more; inactive = T/C below 125%.

Test system: L1210 leukemia ip in BDF1 mice, survival T/C
Assay: NCI In Vivo Anticancer Drug Screen. Data for tumor model L1210 Leukemia (intraperitoneal) in B6D2F1 (BDF1) mice
Details: endpoint: mean survival time, higher = longer survival
Summary of the method: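 Tumor was transplanted into mice, which were then dosed with test compound or vehicle alone. Survival was recorded for each group, and the treated figure was expressed relative to the control figure.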

[1] = dose: 100.0 mg/kg/injection, schedule: Q01DX009 (ip), vehicle: Klucel (hydroxypropylcellulose) (HPC)
[2] = dose: 200.0 mg/kg/injection, schedule: Q01DX009 (ip), vehicle: Klucel (hydroxypropylcellulose) (HPC)
[3] = dose: 100.0 mg/kg/injection, schedule: Q01DX009 (ip), vehicle: saline
[4] = dose: 100.0 mg/kg/injection, schedule: Q04DX003 (ip), vehicle: saline
[5] = dose: 200.0 mg/kg/injection, schedule: Q01DX009 (ip), vehicle: saline
[6] = dose: 200.0 mg/kg/injection, schedule: Q04DX003 (ip), vehicle: saline
[7] = dose: 50.0 mg/kg/injection, schedule: Q04DX002 (ip), vehicle: Klucel (hydroxypropylcellulose) (HPC)
[8] = dose: 100.0 mg/kg/injection, schedule: Q04DX002 (ip), vehicle: Klucel (hydroxypropylcellulose) (HPC)
[9] = dose: 200.0 mg/kg/injection, schedule: Q04DX002 (ip), vehicle: Klucel (hydroxypropylcellulose) (HPC)
[10] = dose: 25.0 mg/kg/injection, schedule: Q04DX003 (ip), vehicle: saline
[11] = dose: 50.0 mg/kg/injection, schedule: Q04DX003 (ip), vehicle: saline
[12] = dose: 400.0 mg/kg/injection, schedule: Q04DX002 (ip), vehicle: Klucel (hydroxypropylcellulose) (HPC)
[13] = dose: 100.0 mg/kg/injection, schedule: Q04DX003 (ip), vehicle: Klucel (hydroxypropylcellulose) (HPC)
[14] = dose: 200.0 mg/kg/injection, schedule: Q04DX003 (ip), vehicle: Klucel (hydroxypropylcellulose) (HPC)

Measured: T/C

CCCCCCC1c2ccccc2CC1CCCC (stereo not given)
inactive: dose: 50.0 mg/kg/injection, schedule: Q01DX001 (ip), vehicle: saline 102 % of control | dose: 100.0 mg/kg/injection, schedule: Q01DX001 (ip), vehicle: saline 104 % of control | dose: 200.0 mg/kg/injection, schedule: Q01DX001 (ip), vehicle: saline 102 % of control | dose: 400.0 mg/kg/injection, schedule: Q01DX001 (ip), vehicle: saline 98 % of control

COC(=O)c1ccccc1NC(=O)Nc1cccc(Cl)c1C
inactive: [1] 86 % of control | [2] 95 % of control

Cc1ccc([N+](=O)[O-])cc1NC(=O)Nc1cccc2c(O)cccc12
inactive: [1] 86 % of control | [2] 100 % of control

CC(C)(C)NC/C(=C\c1ccccc1)S(=O)(=O)c1ccccc1[N+](=O)[O-]
inactive: dose: 50.0 mg/kg/injection, schedule: Q01DX001 (ip), vehicle: saline with Tween-80 91 % of control | dose: 100.0 mg/kg/injection, schedule: Q01DX001 (ip), vehicle: saline with Tween-80 93 % of control | dose: 200.0 mg/kg/injection, schedule: Q01DX001 (ip), vehicle: saline with Tween-80 95 % of control

CCCCCC1(C)OCC(CCl)O1 (stereo not given)
inactive: dose: 222.0 mg/kg/injection, schedule: Q01DX Z (ip), vehicle: saline 107 % of control | dose: 333.0 mg/kg/injection, schedule: Q01DX Z (ip), vehicle: saline 97 % of control | dose: 500.0 mg/kg/injection, schedule: Q01DX Z (ip), vehicle: saline 89 % of control

C=CCOCC(O)CNCCCOC (stereo not given)
inactive: [3] 107 % of control | [4] 96 % of control | [5] 98 % of control | [6] 98 % of control

COc1ccc(C(C)(O)c2cc3ccccc3n2S(=O)(=O)c2ccccc2)cc1 (stereo not given)
inactive: [7] 102 % of control | [8] 95 % of control | [9] 95 % of control

CCOP(=O)(C(O)C(Cl)(Cl)Cl)C(O)C(Cl)(Cl)Cl (stereo not given)
inactive: dose: 75.0 mg/kg/injection, schedule: Q04DX003 (ip), vehicle: saline with Tween-80 95 % of control | dose: 150.0 mg/kg/injection, schedule: Q04DX003 (ip), vehicle: saline with Tween-80 97 % of control

C=C(C)C(=O)N(C)C
inactive: [3] 105 % of control | [5] 113 % of control | dose: 400.0 mg/kg/injection, schedule: Q01DX009 (ip), vehicle: saline 103 % of control

CCCCCC(CN(C)C)C(=O)/C=C\c1ccc(Cl)cc1Cl (stereo not given)
inactive: dose: 12.5 mg/kg/injection, schedule: Q04DX003 (ip), vehicle: alcohol 87 % of control | dose: 25.0 mg/kg/injection, schedule: Q04DX003 (ip), vehicle: alcohol 97 % of control | dose: 50.0 mg/kg/injection, schedule: Q04DX003 (ip), vehicle: alcohol 97 % of control

CCOC(CNC(=O)c1cccc(S(=O)(=O)F)c1)OCC
inactive: dose: 100.0 mg/kg/injection, schedule: Q04DX003 (ip), vehicle: saline + alcohol 98 % of control | dose: 200.0 mg/kg/injection, schedule: Q04DX003 (ip), vehicle: saline + alcohol 96 % of control

CS(C)(=O)=C/C(=C\C(=O)c1ccccc1)c1ccccc1
inactive: [10] 100 % of control | [11] 103 % of control | [4] 97 % of control

COC(=O)C1OCOC2C(COS(=O)(=O)c3ccc(C)cc3)OCOC12 (stereo not given)
inactive: [7] 100 % of control | [8] 98 % of control and 111 % of control | [9] 95 % of control and 101 % of control | [12] 101 % of control

COc1cc2c(cc1OC)CC(=O)NC2
inactive: [4] 95 % of control | [6] 97 % of control | dose: 400.0 mg/kg/injection, schedule: Q04DX003 (ip), vehicle: saline 97 % of control

NS(=O)(=O)c1ccc(Cl)c([N+](=O)[O-])c1
inactive: dose: 100.0 mg/kg/injection, schedule: Q04DX002 (ip), vehicle: saline with Tween-80 98 % of control | dose: 200.0 mg/kg/injection, schedule: Q04DX002 (ip), vehicle: saline with Tween-80 91 % of control | dose: 400.0 mg/kg/injection, schedule: Q04DX002 (ip), vehicle: saline with Tween-80 91 % of control

C[N+](C)(CCCCCCCCCC[N+](C)(C)Cc1ccccc1)Cc1ccccc1
inactive: dose: 1.5 mg/kg/injection, schedule: Q01DX009 (ip), vehicle: saline 106 % of control | dose: 1.5 mg/kg/injection, schedule: Q04DX003 (ip), vehicle: saline 95 % of control | dose: 3.0 mg/kg/injection, schedule: Q01DX009 (ip), vehicle: saline 101 % of control | dose: 3.0 mg/kg/injection, schedule: Q04DX003 (ip), vehicle: saline 97 % of control | dose: 6.0 mg/kg/injection, schedule: Q01DX009 (ip), vehicle: saline 93 % of control | dose: 6.0 mg/kg/injection, schedule: Q04DX003 (ip), vehicle: saline 95 % of control

CCc1oc(=O)c2ccccc2c1-c1ccccc1
inactive: dose: 50.0 mg/kg/injection, schedule: Q01DX009 (ip), vehicle: saline with Tween-80 93 % of control | dose: 100.0 mg/kg/injection, schedule: Q01DX009 (ip), vehicle: saline with Tween-80 90 % of control | dose: 200.0 mg/kg/injection, schedule: Q01DX009 (ip), vehicle: saline with Tween-80 93 % of control

CC(=O)c1c(C)cc2cc(C)cc(O)c2c1O
inactive: [13] 97 % of control | [14] 101 % of control | dose: 400.0 mg/kg/injection, schedule: Q04DX003 (ip), vehicle: Klucel (hydroxypropylcellulose) (HPC) 101 % of control

CCCCCCCS(=O)c1nc2ccccc2s1 (stereo not given)
inactive: dose: 100.0 mg/kg/injection, schedule: Q04DX002 (ip), vehicle: other 104 % of control | dose: 200.0 mg/kg/injection, schedule: Q04DX002 (ip), vehicle: other 91 % of control | dose: 400.0 mg/kg/injection, schedule: Q04DX002 (ip), vehicle: other 91 % of control

CC1CCCCC1OC(=O)CCN1CC1 (stereo not given)
inactive: dose: 3.0 mg/kg/injection, schedule: Q01DX009 (ip), vehicle: Klucel (hydroxypropylcellulose) (HPC) 94 % of control | dose: 6.0 mg/kg/injection, schedule: Q01DX009 (ip), vehicle: Klucel (hydroxypropylcellulose) (HPC) 94 % of control | dose: 12.0 mg/kg/injection, schedule: Q01DX009 (ip), vehicle: Klucel (hydroxypropylcellulose) (HPC) 100 % of control | dose: 25.0 mg/kg/injection, schedule: Q01DX009 (ip), vehicle: Klucel (hydroxypropylcellulose) (HPC) 94 % of control and 102 % of control | dose: 50.0 mg/kg/injection, schedule: Q01DX009 (ip), vehicle: Klucel (hydroxypropylcellulose) (HPC) 109 % of control | dose: 50.0 mg/kg/injection, schedule: Q04DX003 (ip), vehicle: Klucel (hydroxypropylcellulose) (HPC) 108 % of control | [13] 97 % of control and 108 % of control | [14] 104 % of control

O=C(OCC(OC(=O)c1ccccc1)C(OC(=O)c1ccccc1)C(OC(=O)c1ccccc1)C(SCc1ccccc1)SCc1ccccc1)c1ccccc1 (stereo not given)
inactive: dose: 100.0 mg/kg/injection, schedule: Q01DX001 (ip), vehicle: carboxymethylcellulose (CMC) 101 % of control | dose: 200.0 mg/kg/injection, schedule: Q01DX001 (ip), vehicle: carboxymethylcellulose (CMC) 97 % of control | dose: 400.0 mg/kg/injection, schedule: Q01DX001 (ip), vehicle: carboxymethylcellulose (CMC) 95 % of control

N#C[Se]C[Se]C#N
inactive: dose: 1.56 mg/kg/injection, schedule: Q01DX001 (ip), vehicle: saline 95 % of control | dose: 3.13 mg/kg/injection, schedule: Q01DX001 (ip), vehicle: saline 100 % of control | dose: 6.25 mg/kg/injection, schedule: Q01DX001 (ip), vehicle: saline 100 % of control

O=C1C=C(O)C2C3C=CC(CC3)C12 (stereo not given)
inactive: [8] 106 % of control | [9] 106 % of control | [12] 92 % of control

CN(C)CCCCC(C#N)(c1ccccc1)c1ccccc1
inactive: dose: 15.0 mg/kg/injection, schedule: Q01DX001 (ip), vehicle: saline 88 % of control | dose: 30.0 mg/kg/injection, schedule: Q01DX001 (ip), vehicle: saline 92 % of control

Nc1nc(N)c2cc(N3CCCC3c3ccc(Cl)cc3)ccc2n1 (stereo not given)
inactive: dose: 25.0 mg/kg/injection, schedule: Q01DX009 (ip), vehicle: water 87 % of control

CC(NC(=O)OCc1ccccc1)C(=O)NC(CC(=O)O)C(=O)O (stereo not given)
inactive: dose: 25.0 mg/kg/injection, schedule: Q01DX009 (ip), vehicle: saline 96 % of control | [10] 93 % of control | dose: 50.0 mg/kg/injection, schedule: Q01DX009 (ip), vehicle: saline 98 % of control | [11] 98 % of control | [3] 93 % of control | [4] 97 % of control
